Results on one molecule are retold here after patent publication US8044035B2, “Pharmaceutical compositions of pyrimidine-2,4,6-triones” (priority 2004, dated 2011).

Series [1] can be described thus: Pharmacokinetics after intravenous administration to sheep. To be noted: intravenous 5 mg/kg. It counts as in vivo. How it is done:
The Compound I/HP-β-CD intravenous solution was obtained by dissolving Compound I (10 mg/ml) in a solution containing HP-β-CD (200 mM), L-lysine (20 mM) and water for injection. The osmolality (about 325 mOsmol/kg) and the pH (about 8.2) values of this solution are compatible with an intravenous injection. The solution was sterilized by passing through a sterile 0.20 μm cellulose acetate filter under aseptic conditions.
Six healthy sheep (2 males and 4 females) ranging from 45 to 82 kg of body weight were used as experimental animals. During the test, the animals were fed and watered ad libitum. […]
For the intravenous administration study, the pharmacokinetic parameters were determined for each animal using a linear two-compartment model with first-order distribution and elimination (Boroujerdi, M., Pharmacokinetics, Principles and Applications. McGrow-Hill Companies, USA, 2002). The areas under the curve values (AUCs0-168) were calculated by linear trapezoidal rule during the sampling period. The AUC extrapolated until infinite values (AUCs0-∞) the total body clearance values (Clt), the biologic half-life (T1/2β) and the overall volume of distribution (Vdt) were calculated using conventional equations associated with compartmental analysis (Boroujerdi, M., Pharmacokinetics, Principles and Applications. McGrow-Hill Companies, USA, 2002).

Series [2] relates to aorta ring, formation of new vessels (angiogenesis). As to the kind of experiment: Aorta ring model of neovascularisation (inhibition of angiogenesis). It counts as cell-based. The conditions noted are these: aorta ring in culture medium, final concentration 10^−6 M, 10^−7 M. From the text: In order to study the potential effects of the complex Compound I-cyclodextrine, a model of neovascularisation has been used. An aorta ring is cut and placed in a culture medium. This culture medium containing either: • no active principle • the complex compound I-cyclodextrins (final concentration 10-^6M, 10^−7M) • compound I dissolved in DMSO with the help of […] (final concentration 10-^6, 10-^7M).

Series [3] relates to allergen-induced airway inflammation in a mouse model of asthma. As to the kind of experiment: Mouse model of asthma, intraperitoneal injection of Compound I. Format: in vivo, mice. How it is done:
No inhalations were performed during even weeks.

For the molecule `O=C1NC(=O)C(c2ccc(-c3ccccc3)cc2)(N2CCN(c3ccc([N+](=O)[O-])cc3)CC2)C(=O)N1` [Compound I, 5-Biphenyl-4-yl-5-[4-(4-nitro-phenyl)-piperazin-1-yl]pyrimidine-2,4,6-trione], the Distribution phase entry in series [1] is “about 30 minutes”. For the same molecule, the “Angiogenesis (formation of new vessels)” value in series [2] was “inhibited significantly”. The Peribronchial inflammation scores entry in series [3] (3.75 to 30 mg/kg, equal efficacy of all tested formulations) is listed as “significantly lowered”. Moreover, the “Tissue eosinophil infiltration score” value in series [3] (doses of 7.5 and 25 mg/kg) is listed as “significantly lowered”. Moreover, in series [3] (solution or precipitate, 3.75 to 30 mg/kg, compared to placebo, OVA-sensitized mice), the “Allergen-induced airway eosinophilic inflammation in BAL” value was “lowered”.
